Experiments:
[1] = tested on: ECHCG (Barnyardgrass); assay: Preemergence herbicidal evaluation; format: in vivo, Echinochloa crus-galli; details: rated 4-5 weeks after treatment
Outline: (§1)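 Test compound, dissolved in aqueous acetone, was sprayed over planted soil cups at an equivalent of about 0.0156 to 0.500 kg/ha; seeds had been mixed with potting soil. Greenhouse growth followed, with visual 0-9 scoring of injury at four to five weeks.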

[2] = tested on: ABUTH (Velvetleaf); assay: Postemergence herbicidal evaluation; format: in vivo, Abutilon theophrasti; details: postemergence
Outline: (§2)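 Rate range approx. 0.0156–0.500 kg/ha. Foliar application at 40 psi to ~2-week seedlings; surfactant 0.5% TWEEN 20 in 50/50 acetone/water. Evaluation 4–5 wk post-treatment by 0–9 visual injury score, means of replicate tests.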

[3] = tested on: TRZAWR (Wheat, Winter, cv Riband); assay: Preemergence herbicidal evaluation; format: in vivo, Triticum aestivum; details: rated 4-5 weeks after treatment
Outline: as §1

[4] = tested on: ORYSAT (Rice, Tebonnet); assay: Preemergence herbicidal evaluation; format: in vivo, Oryza sativa, (L.) Tebonnet; details: rated 4-5 weeks after treatment
Outline: as §1

[5] = tested on: ECHORC (Watergrass (Calif.)); assay: Preemergence weed control under flooded paddy conditions; format: in vivo, Echinochloa oryzoides; details: rated 3-4 weeks after treatment
Outline: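 First, seeds or propagules go into the top 0.5 cm of silt loam; next, water is held 1.5 to 3 cm over the soil; then compound (50/50 acetone/water) is pipetted into it at about 0.0313 to 0.500 kg/ha; finally plants are rated visually 0-9 after three to four weeks.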

[6] = tested on: IPOHE (Morningglory, Ivyleaf); assay: Postemergence herbicidal evaluation; format: in vivo, Ipomoea hederacea; details: postemergence
Outline: as §2

[7] = tested on: MOOVA (Monochoria); assay: Preemergence weed control under flooded paddy conditions; format: in vivo, Monochoria vaginalis; details: rated 3-4 weeks after treatment
Outline: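 Seeds or propagules sown in top 0.5 cm of silt loam soil, flooded 1.5 to 3 cm above surface throughout. Compound in 50/50 v/v aqueous/acetone pipetted into flood water at about 0.0313 to 0.500 kg/ha. Visual 0-9 rating versus control after three to four weeks in greenhouse.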

[8] = tested on: TRZAWR (Wheat, Winter, cv Riband); assay: Postemergence herbicidal evaluation; format: in vivo, Triticum aestivum; details: postemergence
Outline: as §2

[9] = tested on: CHEAL (Lambsquarters, Common); assay: Preemergence herbicidal evaluation; format: in vivo, Chenopodium album; details: rated 4-5 weeks after treatment
Outline: as §1

[10] = tested on: SETVI (Foxtail, Green); assay: Preemergence herbicidal evaluation; format: in vivo, Setaria viridis; details: rated 4-5 weeks after treatment
Outline: as §1

[11] = tested on: IPOHE (Morningglory, Ivyleaf); assay: Preemergence herbicidal evaluation; format: in vivo, Ipomoea hederacea; details: rated 4-5 weeks after treatment
Outline: as §1

Q: How did the “Preemergence herbicidal rating ECHCG” value ([1]; rate 0.0625 kg/ha) turn out when `CCOC(=O)CN1C(=O)C(Cl)SC1=Nc1cc(-n2c(=O)cc(C(F)(F)F)n(C)c2=O)c(F)cc1Cl` (stereo not drawn) [Compound 126, Ethyl 5-chloro-2-{{2-chloro-5-[3,6-dihydro-3-methyl-2,6-dioxo-4-(trifluoromethyl)-1(2H)-pyrimidinyl]-4-fluorophenyl}imino}-4-oxo-3-thiazolidineacetate] was run?
A: Its value is 0.0.

Q: What about the “Preemergence herbicidal rating ECHCG” value ([1]; rate 0.1250 kg/ha) of the same compound?
A: Its value is 0.0.

Q: And the “Preemergence herbicidal rating ECHCG” value ([1]; rate 0.2500 kg/ha)?
A: Its value is 0.0.

Q: What about the “Preemergence herbicidal rating ECHCG” value ([1]; rate 0.5000 kg/ha) of the same compound?
A: Its value is 2.0.

Q: What about the “herbicidal rating ABUTH” value ([2]; rate 0.0156 kg/ha) of the same compound?
A: The value was 5.0.

Q: And the “herbicidal rating ABUTH” value ([2]; rate 0.0313 kg/ha)?
A: The value was 9.0.

Q: What about the “herbicidal rating ABUTH” value ([2]; rate 0.0625 kg/ha) of the same compound?
A: Its value is 9.0.

Q: What about the “herbicidal rating ABUTH” value ([2]; rate 0.1250 kg/ha) of the same compound?
A: Its value is 9.0.

Q: And the “Preemergence herbicidal rating TRZAWR” value ([3]; rate 0.0625 kg/ha)?
A: Its value is 0.0.

Q: And the “Preemergence herbicidal rating TRZAWR” value ([3]; rate 0.1250 kg/ha)?
A: The value was 0.0.

Q: And the “Preemergence herbicidal rating TRZAWR” value ([3]; rate 0.2500 kg/ha)?
A: Its value is 0.0.

Q: And the “Preemergence herbicidal rating TRZAWR” value ([3]; rate 0.5000 kg/ha)?
A: The value was 0.0.

Q: And the “Preemergence herbicidal rating ORYSAT” value ([4]; rate 0.0625 kg/ha)?
A: Its value is 0.0.

Q: And the “Preemergence herbicidal rating ORYSAT” value ([4]; rate 0.1250 kg/ha)?
A: Its value is 0.0.

Q: What about the “Preemergence herbicidal rating ORYSAT” value ([4]; rate 0.2500 kg/ha) of the same compound?
A: Its value is 0.0.

Q: What about the “Preemergence herbicidal rating ORYSAT” value ([4]; rate 0.5000 kg/ha) of the same compound?
A: Its value is 3.0.

Q: And the “herbicidal effect rating, ECHORC” value ([5]; 0.0313 kg/ha)?
A: Its value is 0.0.

Q: And the “herbicidal effect rating, ECHORC” value ([5]; 0.0625 kg/ha)?
A: The value was 3.0.

Q: And the “herbicidal effect rating, ECHORC” value ([5]; 0.1250 kg/ha)?
A: Its value is 6.0.

Q: And the “herbicidal effect rating, ECHORC” value ([5]; 0.2500 kg/ha)?
A: The value was 7.0.

Q: And the “herbicidal rating IPOHE” value ([6]; rate 0.0156 kg/ha)?
A: Its value is 9.0.

Q: What about the “herbicidal rating IPOHE” value ([6]; rate 0.0313 kg/ha) of the same compound?
A: The value was 9.0.

Q: And the “herbicidal rating IPOHE” value ([6]; rate 0.0625 kg/ha)?
A: Its value is 9.0.

Q: What about the “herbicidal rating IPOHE” value ([6]; rate 0.1250 kg/ha) of the same compound?
A: The value was 9.0.

Q: What about the “herbicidal effect rating, MOOVA” value ([7]; 0.0313 kg/ha) of the same compound?
A: Its value is 3.0.

Q: What about the “herbicidal effect rating, MOOVA” value ([7]; 0.0625 kg/ha) of the same compound?
A: The value was 4.0.

Q: What about the “herbicidal effect rating, MOOVA” value ([7]; 0.1250 kg/ha) of the same compound?
A: Its value is 6.0.

Q: What about the “herbicidal effect rating, MOOVA” value ([7]; 0.2500 kg/ha) of the same compound?
A: Its value is 7.0.

Q: What about the “herbicidal rating TRZAWR” value ([8]; rate 0.0156 kg/ha) of the same compound?
A: The value was 2.0.

Q: And the “herbicidal rating TRZAWR” value ([8]; rate 0.0313 kg/ha)?
A: Its value is 2.5.

Q: What about the “herbicidal rating TRZAWR” value ([8]; rate 0.0625 kg/ha) of the same compound?
A: The value was 3.0.

Q: What about the “herbicidal rating TRZAWR” value ([8]; rate 0.1250 kg/ha) of the same compound?
A: Its value is 3.5.

Q: What about the “Preemergence herbicidal rating CHEAL” value ([9]; rate 0.0625 kg/ha) of the same compound?
A: The value was 9.0.

Q: And the “Preemergence herbicidal rating CHEAL” value ([9]; rate 0.1250 kg/ha)?
A: The value was 9.0.

Q: And the “Preemergence herbicidal rating CHEAL” value ([9]; rate 0.2500 kg/ha)?
A: Its value is 9.0.

Q: And the “Preemergence herbicidal rating CHEAL” value ([9]; rate 0.5000 kg/ha)?
A: Its value is 9.0.

Q: And the “Preemergence herbicidal rating SETVI” value ([10]; rate 0.0625 kg/ha)?
A: Its value is 0.0.

Q: What about the “Preemergence herbicidal rating SETVI” value ([10]; rate 0.1250 kg/ha) of the same compound?
A: Its value is 0.0.

Q: What about the “Preemergence herbicidal rating SETVI” value ([10]; rate 0.2500 kg/ha) of the same compound?
A: Its value is 3.0.

Q: And the “Preemergence herbicidal rating SETVI” value ([10]; rate 0.5000 kg/ha)?
A: The value was 9.0.

Q: What about the “Preemergence herbicidal rating IPOHE” value ([11]; rate 0.0625 kg/ha) of the same compound?
A: The value was 0.0.

Q: And the “Preemergence herbicidal rating IPOHE” value ([11]; rate 0.1250 kg/ha)?
A: The value was 1.0.

Q: And the “Preemergence herbicidal rating IPOHE” value ([11]; rate 0.2500 kg/ha)?
A: Its value is 1.0.

Q: And the “Preemergence herbicidal rating IPOHE” value ([11]; rate 0.5000 kg/ha)?
A: The value was 9.0.

Q: What does the source list for `COCCOC(=O)CN1C(=O)CSC1=Nc1cc(-n2c(=O)cc(C(F)(F)F)n(C)c2=O)c(F)cc1Cl` [Compound 107, 2-Methoxyethyl 2-{{2-chloro-5-[3,6-dihydro-3-methyl-2,6-dioxo-4-(trifluoromethyl)-1(2H)-pyrimidinyl]-4-fluorophenyl}imino}-4-oxo-3-thiazolidineacetate]?
A: Preemergence herbicidal rating ECHCG ([1]; rate 0.0313 kg/ha): 0.0; Preemergence herbicidal rating ECHCG ([1]; rate 0.0625 kg/ha): 0.0; Preemergence herbicidal rating ECHCG ([1]; rate 0.1250 kg/ha): 0.0; Preemergence herbicidal rating ECHCG ([1]; rate 0.2500 kg/ha): 1.0; herbicidal rating ABUTH ([2]; rate 0.0158 kg/ha): 9.0; herbicidal rating ABUTH ([2]; rate 0.0315 kg/ha): 7.0; herbicidal rating ABUTH ([2]; rate 0.0630 kg/ha): 9.0; Preemergence herbicidal rating TRZAWR ([3]; rate 0.0313 kg/ha): 0.0; Preemergence herbicidal rating TRZAWR ([3]; rate 0.0625 kg/ha): 0.0; Preemergence herbicidal rating TRZAWR ([3]; rate 0.1250 kg/ha): 0.0; Preemergence herbicidal rating TRZAWR ([3]; rate 0.2500 kg/ha): 4.0; Preemergence herbicidal rating ORYSAT ([4]; rate 0.0313 kg/ha): 0.0; Preemergence herbicidal rating ORYSAT ([4]; rate 0.0625 kg/ha): 0.0; Preemergence herbicidal rating ORYSAT ([4]; rate 0.1250 kg/ha): 0.0; Preemergence herbicidal rating ORYSAT ([4]; rate 0.2500 kg/ha): 2.0; ECHORC herbicidal effect rating ([5]; 0.0313 kg/ha): 0.0; ECHORC herbicidal effect rating ([5]; 0.0625 kg/ha): 4.0; ECHORC herbicidal effect rating ([5]; 0.1250 kg/ha): 4.0; ECHORC herbicidal effect rating ([5]; 0.2500 kg/ha): 4.0; herbicidal rating IPOHE ([6]; rate 0.0158 kg/ha): 9.0; herbicidal rating IPOHE ([6]; rate 0.0315 kg/ha): 7.0; herbicidal rating IPOHE ([6]; rate 0.0630 kg/ha): 9.0; MOOVA herbicidal effect rating ([7]; 0.0313 kg/ha): 4.0; MOOVA herbicidal effect rating ([7]; 0.0625 kg/ha): 6.0; MOOVA herbicidal effect rating ([7]; 0.1250 kg/ha): 7.0; MOOVA herbicidal effect rating ([7]; 0.2500 kg/ha): 9.0; herbicidal rating TRZAWR ([8]; rate 0.0158 kg/ha): 2.0; herbicidal rating TRZAWR ([8]; rate 0.0315 kg/ha): 3.0; herbicidal rating TRZAWR ([8]; rate 0.0630 kg/ha): 5.0; Preemergence herbicidal rating CHEAL ([9]; rate 0.0625 kg/ha): 6.0; Preemergence herbicidal rating CHEAL ([9]; rate 0.1250 kg/ha): 9.0; Preemergence herbicidal rating CHEAL ([9]; rate 0.2500 kg/ha): 9.0; Preemergence herbicidal rating SETVI ([10]; rate 0.0313 kg/ha): 0.0; Preemergence herbicidal rating SETVI ([10]; rate 0.0625 kg/ha): 1.0; Preemergence herbicidal rating SETVI ([10]; rate 0.1250 kg/ha): 0.0; Preemergence herbicidal rating SETVI ([10]; rate 0.2500 kg/ha): 7.0; Preemergence herbicidal rating IPOHE ([11]; rate 0.0313 kg/ha): 0.0; Preemergence herbicidal rating IPOHE ([11]; rate 0.0625 kg/ha): 0.0; Preemergence herbicidal rating IPOHE ([11]; rate 0.1250 kg/ha): 1.0; Preemergence herbicidal rating IPOHE ([11]; rate 0.2500 kg/ha): 7.0

Reference: patent US20020137929A1, “1 - (3-heterocyclylphenyl) isothiourea, -isourea, -guanidine and -amidine herbicidal agents” (Intellectual Property Department, BASF Aktiengesellschaft, priority 1998, published 2002)
